Experimental data reported in the CheMixHub viscosity set.
± gives the uncertainty stated by the source.

Assay: xn = mol fraction of the nth substance listed

COCCOC + O
Details | viscosity [mPa·s]
298 K, 101 kPa, x2 = 0.222 | 0.5134 ± 0.005
298 K, 101 kPa, x2 = 0.353 | 0.6057 ± 0.0056
298 K, 101 kPa, x2 = 0.3777 | 0.6324 ± 0.0058
298 K, 101 kPa, x2 = 0.4685 | 0.7626 ± 0.0068
298 K, 101 kPa, x2 = 0.5569 | 0.943 ± 0.008
298 K, 101 kPa, x2 = 0.711 | 1.481 ± 0.011
298 K, 101.3 kPa, x1 = 0.019 | 1.166 ± 0.011
298 K, 101.3 kPa, x1 = 0.0608 | 1.748 ± 0.017
298 K, 101.3 kPa, x1 = 0.1011 | 2.092 ± 0.02
298 K, 101.3 kPa, x1 = 0.1521 | 2.104 ± 0.02
298 K, 101.3 kPa, x1 = 0.1999 | 1.935 ± 0.018
298 K, 101.3 kPa, x1 = 0.2992 | 1.432 ± 0.013
298 K, 101.3 kPa, x1 = 0.4048 | 1.074 ± 0.01
298 K, 101.3 kPa, x1 = 0.597 | 0.684 ± 0.006
298 K, 101.3 kPa, x1 = 0.801 | 0.506 ± 0.005
298.15 K, 101.33 kPa, x1 = 0.007 | 1.018 ± 0.008
298.15 K, 101.33 kPa, x1 = 0.0184 | 1.189 ± 0.01
298.15 K, 101.33 kPa, x1 = 0.0306 | 1.376 ± 0.011
298.15 K, 101.33 kPa, x1 = 0.0542 | 1.712 ± 0.013
298.15 K, 101.33 kPa, x1 = 0.0775 | 1.968 ± 0.015
298.15 K, 101.33 kPa, x1 = 0.1063 | 2.146 ± 0.016
298.15 K, 101.33 kPa, x1 = 0.1301 | 2.252 ± 0.017
298.15 K, 101.33 kPa, x1 = 0.1654 | 2.164 ± 0.016
298.15 K, 101.33 kPa, x1 = 0.2002 | 2.001 ± 0.015
298.15 K, 101.33 kPa, x1 = 0.2402 | 1.782 ± 0.013
298.15 K, 101.33 kPa, x1 = 0.2886 | 1.55 ± 0.011
298.15 K, 101.33 kPa, x1 = 0.3482 | 1.256 ± 0.009
298.15 K, 101.33 kPa, x1 = 0.3836 | 1.128 ± 0.008
298.15 K, 101.33 kPa, x1 = 0.4226 | 1.005 ± 0.008
298.15 K, 101.33 kPa, x1 = 0.4689 | 0.886 ± 0.007
298.15 K, 101.33 kPa, x1 = 0.5203 | 0.78 ± 0.006
298.15 K, 101.33 kPa, x1 = 0.5617 | 0.707 ± 0.006
298.15 K, 101.33 kPa, x1 = 0.613 | 0.638 ± 0.005
298.15 K, 101.33 kPa, x1 = 0.6418 | 0.605 ± 0.005
298.15 K, 101.33 kPa, x1 = 0.6575 | 0.586 ± 0.005
298.15 K, 101.33 kPa, x1 = 0.7264 | 0.536 ± 0.005
298.15 K, 101.33 kPa, x1 = 0.8227 | 0.491 ± 0.005
298.15 K, 101.33 kPa, x1 = 0.8646 | 0.471 ± 0.005
298.15 K, 101.33 kPa, x1 = 0.9633 | 0.433 ± 0.004
303.15 K, 101 kPa, x1 = 0.0471 | 1.344 ± 0.013
303.15 K, 101 kPa, x1 = 0.0951 | 1.725 ± 0.017
303.15 K, 101 kPa, x1 = 0.1421 | 1.837 ± 0.018
303.15 K, 101 kPa, x1 = 0.1877 | 1.726 ± 0.018
303.15 K, 101 kPa, x1 = 0.2322 | 1.562 ± 0.016
303.15 K, 101 kPa, x1 = 0.277 | 1.373 ± 0.014
303.15 K, 101 kPa, x1 = 0.3598 | 1.093 ± 0.012
303.15 K, 101 kPa, x1 = 0.4455 | 0.8759 ± 0.0094
303.15 K, 101 kPa, x1 = 0.5389 | 0.7129 ± 0.0077
303.15 K, 101 kPa, x1 = 0.6952 | 0.5462 ± 0.0059
303.15 K, 101 kPa, x1 = 0.803 | 0.4759 ± 0.0051
303.15 K, 101 kPa, x1 = 0.9001 | 0.4317 ± 0.0047
308.15 K, 101 kPa, x1 = 0.0471 | 1.174 ± 0.013
308.15 K, 101 kPa, x1 = 0.0951 | 1.487 ± 0.016
308.15 K, 101 kPa, x1 = 0.1421 | 1.583 ± 0.017
308.15 K, 101 kPa, x1 = 0.1877 | 1.493 ± 0.016
308.15 K, 101 kPa, x1 = 0.2322 | 1.375 ± 0.014
308.15 K, 101 kPa, x1 = 0.277 | 1.214 ± 0.013
308.15 K, 101 kPa, x1 = 0.3598 | 0.98 ± 0.01
308.15 K, 101 kPa, x1 = 0.4455 | 0.7944 ± 0.0082
308.15 K, 101 kPa, x1 = 0.5389 | 0.6553 ± 0.0068
308.15 K, 101 kPa, x1 = 0.6952 | 0.5103 ± 0.0054
308.15 K, 101 kPa, x1 = 0.803 | 0.448 ± 0.0048
308.15 K, 101 kPa, x1 = 0.9001 | 0.4079 ± 0.0044
313.15 K, 101 kPa, x1 = 0.0471 | 1.035 ± 0.011
313.15 K, 101 kPa, x1 = 0.0951 | 1.302 ± 0.014
313.15 K, 101 kPa, x1 = 0.1421 | 1.377 ± 0.015
313.15 K, 101 kPa, x1 = 0.1877 | 1.308 ± 0.014
313.15 K, 101 kPa, x1 = 0.2322 | 1.211 ± 0.013
313.15 K, 101 kPa, x1 = 0.277 | 1.081 ± 0.011
313.15 K, 101 kPa, x1 = 0.3598 | 0.886 ± 0.0092
313.15 K, 101 kPa, x1 = 0.4455 | 0.7267 ± 0.0075
313.15 K, 101 kPa, x1 = 0.5389 | 0.6061 ± 0.0063
313.15 K, 101 kPa, x1 = 0.6952 | 0.4784 ± 0.0051
313.15 K, 101 kPa, x1 = 0.803 | 0.4217 ± 0.0046
313.15 K, 101 kPa, x1 = 0.9001 | 0.3865 ± 0.0043
318.15 K, 101 kPa, x1 = 0.0471 | 0.9228 ± 0.0097
318.15 K, 101 kPa, x1 = 0.0951 | 1.143 ± 0.012
318.15 K, 101 kPa, x1 = 0.1421 | 1.208 ± 0.013
318.15 K, 101 kPa, x1 = 0.1877 | 1.157 ± 0.012
318.15 K, 101 kPa, x1 = 0.2322 | 1.07 ± 0.011
318.15 K, 101 kPa, x1 = 0.277 | 0.9692 ± 0.01
318.15 K, 101 kPa, x1 = 0.3598 | 0.8048 ± 0.0083
318.15 K, 101 kPa, x1 = 0.4455 | 0.6672 ± 0.007
318.15 K, 101 kPa, x1 = 0.5389 | 0.5616 ± 0.0059
318.15 K, 101 kPa, x1 = 0.6952 | 0.4497 ± 0.0048
318.15 K, 101 kPa, x1 = 0.803 | 0.3986 ± 0.0044
318.15 K, 101 kPa, x1 = 0.9001 | 0.367 ± 0.0041
323.15 K, 101 kPa, x1 = 0.0471 | 0.8291 ± 0.0094
323.15 K, 101 kPa, x1 = 0.0951 | 1.013 ± 0.012
323.15 K, 101 kPa, x1 = 0.1421 | 1.07 ± 0.012
323.15 K, 101 kPa, x1 = 0.1877 | 1.034 ± 0.011
323.15 K, 101 kPa, x1 = 0.2322 | 0.9565 ± 0.01
323.15 K, 101 kPa, x1 = 0.277 | 0.8719 ± 0.0091
323.15 K, 101 kPa, x1 = 0.3598 | 0.7336 ± 0.0076
323.15 K, 101 kPa, x1 = 0.4455 | 0.6155 ± 0.0064
323.15 K, 101 kPa, x1 = 0.5389 | 0.5232 ± 0.0054
323.15 K, 101 kPa, x1 = 0.6952 | 0.4226 ± 0.0045
323.15 K, 101 kPa, x1 = 0.803 | 0.3769 ± 0.0042
323.15 K, 101 kPa, x1 = 0.9001 | 0.3479 ± 0.0039
